Data as given in ChEMBL document CHEMBL5634109, “Synthesis and mechanism of action of new purine derivatives against triple negative breast cancer” (Eur J Med Chem, 2023).
Activity calls are given as the source filed them. The calls are words filed in the database; no cut-off is given here.

How the values were obtained:
PC-3 = assay: Antiproliferative activity against human PC-3 cells assessed as reduction in cell viability measured for 48 hrs by MTT assay; assay type: functional, cell-based; conditions: PC-3, 48 h
MDA-MB-231 [1] = assay: Induction of apoptosis in human MDA-MB-231 cells assessed as apoptotic cells at 4 uM incubated for 48 hrs by Annexin V-FITC/PI staining based analysis; assay type: functional
MDA-MB-231 [2] = assay: Inhibition of cell migration human MDA-MB-231 cells assessed as migration distance at 25 uM incubated for 24 hrs by wound healing assay (reference value: 642.72 micrometer); assay type: functional
MDA-MB-231 [3] = assay: Induction of apoptosis in human MDA-MB-231 cells assessed as apoptotic cells at 40 uM incubated for 24 hrs by Annexin V-FITC/PI staining based analysis; assay type: functional
MDA-MB-231 [4] = assay: Induction of apoptosis in human MDA-MB-231 cells assessed as apoptotic cells at 4 uM incubated for 24 hrs by Annexin V-FITC/PI staining based analysis; assay type: functional
[5] = Toxicity in nude mouse xenografted with human MDA-MB-231 cells assessed as change in body weight at 10 to 20 mg/kg, ip measured for 3 days; assay type: organism-based; conditions: in vivo, 72 h, dose 10-20 mg/kg, time 3 day
[6] = Inhibition of PI3K/AKT/mTOR signaling pathway in human MDA-MB-231 cells assessed as increase in p38 expression at 2 to 4 uM incubated for 6 hrs by Western blot analysis; assay type: cell-based; conditions: dose 2-4 µM
[7] = biological target: Dual specificity protein kinase CLK4 (Homo sapiens, UniProt Q9HAZ1); assay: Inhibition of CLK4 (unknown origin)
Sequence of Dual specificity protein kinase CLK4 (Q9HAZ1 whole entry): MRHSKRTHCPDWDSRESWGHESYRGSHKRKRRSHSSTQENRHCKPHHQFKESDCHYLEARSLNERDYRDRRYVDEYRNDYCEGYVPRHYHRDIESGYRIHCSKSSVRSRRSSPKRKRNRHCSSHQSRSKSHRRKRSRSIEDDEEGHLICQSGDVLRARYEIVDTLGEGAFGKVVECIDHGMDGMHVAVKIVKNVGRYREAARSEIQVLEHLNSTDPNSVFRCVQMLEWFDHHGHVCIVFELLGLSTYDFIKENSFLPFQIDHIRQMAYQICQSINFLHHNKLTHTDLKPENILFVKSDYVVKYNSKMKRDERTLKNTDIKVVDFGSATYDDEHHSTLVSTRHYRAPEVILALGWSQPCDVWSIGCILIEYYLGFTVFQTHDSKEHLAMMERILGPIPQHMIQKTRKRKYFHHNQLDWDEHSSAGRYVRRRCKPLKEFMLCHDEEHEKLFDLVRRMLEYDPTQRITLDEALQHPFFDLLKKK

MDA-MB-231 [8] = assay: Antitumor activity against human MDA-MB-231 cells xenografted in nude mouse assessed as inhibition of spleen metastasis in tumor at 10 mg/kg, ip measured for 3 days; assay type: functional, organism-based; conditions: time 3.0 day
HT-29 = assay: Antiproliferative activity against human HT-29 cells assessed as reduction in cell viability measured for 48 hrs by MTT assay; assay type: functional, cell-based; conditions: HT-29, 48 h
MDA-MB-231 [9] = assay: Antitumor activity against human MDA-MB-231 cells xenografted in nude mouse assessed as decrease in tumor size at 10 to 20 mg/kg, ip measured for 3 days; assay type: functional, organism-based; conditions: dose 10-20 mg/kg, time 3.0 day
MDA-MB-231 [10] = assay: Induction of apoptosis in human MDA-MB-231 cells assessed as apoptotic cells at 4 uM incubated for 12 hrs by Annexin V-FITC/PI staining based analysis; assay type: functional
MDA-MB-231 [11] = assay: Antitumor activity against human MDA-MB-231 cells xenografted in nude mouse assessed as inhibition of lung metastasis in tumor at 10 mg/kg, ip measured for 3 days; assay type: functional, organism-based; conditions: time 3.0 day

IC50 (PC-3): 2430 nM | IC50 [7]: 685 nM | IC50 (HT-29): 4160 nM
Compound: OCCN1CCC(C2CCN(c3nc(NCc4ccc(F)c(Cl)c4)c4ncn(CC5CC5)c4n3)CC2)CC1
Activity (MDA-MB-231 [1]): 96.3% | Activity (MDA-MB-231 [2]): 15.08 um | Activity (MDA-MB-231 [3]): >95% | Activity (MDA-MB-231 [4]): 97.1% | Activity [5]: Non-Toxic | inhibition [6]: Active | Activity (MDA-MB-231 [8]): Active | Activity (MDA-MB-231 [9]): Active | Activity (MDA-MB-231 [10]): 83.5% | Activity (MDA-MB-231 [11]): Active
